We go through three molecules from article PMC4503722, “Novel Phenotypic Outcomes Identified for a Public Collection of Approved Drugs from a Publicly Accessible Panel of Assays” (PLoS ONE, 2015).

Some results are limits rather than exact numbers.

The subject of assay [1] is HT-29. The assay can be described thus: cells. The class given is cell-based. To be noted: basal; for Basal_Viability ATP HT-29 IC50/EC50: assay number 28.
For assay [2], the system named is SW480. The assay can be described thus: cells. The class given is cell-based. As to conditions: basal; for Basal_Viability ATP SW480 IC50/EC50: assay number 24.
The subject of assay [3] is HCT116. The assay can be described thus: cells. The assay is classed as cell-based. To be noted: basal; for Basal_Viability ATP HCT116 IC50/EC50: assay number 25.
Assay [4] addresses T1, hJAK2 (Homo sapiens, UniProt O60674).
T1 construct: purchased Cerep (LANCE kinase assay platform, contract assay)
The assay can be described thus: Cerep LANCE kinase assay hJAK2 (S1 assay 33). The assay is classed as biochemical. To be noted: for hJAK2 LANCE IC50/EC50: assay number 33.

Assay [5] deals with alkaline phosphatase (ALP) activity in C2C12 cells. The assay is classed as cell-based. As to conditions: concentration response; for WntCondMedia_Alk Phos C2C12 IC50/EC50: assay number 6.
The target of assay [6] is T2, hp70S6K1 (RPS6KB1) (Homo sapiens, UniProt P23443).
T2 construct: purchased Cerep (LANCE kinase assay platform, contract assay)
In words: Cerep LANCE kinase assay hp70S6K1 (S1 assay 31). The class given is biochemical. To be noted: for hp70S6K1 LANCE IC50/EC50: assay number 31.

For assay [7], the system named is DLD-1. In words: cells. The assay is classed as cell-based. To be noted: basal; for Basal_Viability ATP DLD-1 IC50/EC50: assay number 23.
In assay [8] the test system is nuclear β-catenin in C2C12 cells. The assay can be described thus: cells. To be noted: concentration response; for WntCondMedia_bCatenin C2C12 IC50/EC50: assay number 5. The class given is cell-based.
Assay [9] deals with SNU-C1. In words: cells. The assay is classed as cell-based. As to conditions: basal; for Basal_Viability ATP SNU-C1 IC50/EC50: assay number 30.
Assay [10] has as its target T3, hKDR (Homo sapiens, UniProt P35968).
T3 construct: purchased Cerep (LANCE kinase assay platform, contract assay)
The assay can be described thus: Cerep LANCE kinase assay hKDR (S1 assay 32). The class given is biochemical. To be noted: for hKDR LANCE IC50/EC50: assay number 32. On the technique in general: Time-resolved FRET reads energy transfer from a long-lived donor to a nearby acceptor.

In assay [11] the test system is RKO. The assay can be described thus: cells. The class given is cell-based. As to conditions: basal; for Basal_Viability ATP RKO IC50/EC50: assay number 29.
Assay [12] concerns the target T4, hFLT3 (Homo sapiens, UniProt P36888).
T4 construct: purchased Cerep (LANCE kinase assay platform, contract assay)
In words: Cerep LANCE kinase assay hFLT3 (S1 assay 35). The assay is classed as biochemical. As to conditions: for hFLT3 LANCE IC50/EC50: assay number 35.

Assay [13] relates to HCT116 cells treated with a GSK3β inhibitor. The assay can be described thus: cells. The class given is cell-based. To be noted: for GSK3b inh pretreated_Viability ATP HCT116 IC50/EC50: assay number 26, GSK3b inhibitor pretreated.
The subject of assay [14] is HeLa cells. The assay can be described thus: cells. As to conditions: for Hela CellCycMod PI 2N IC50/EC50: assay number 14; for Hela CellCycMod PI 4N IC50/EC50: assay number 16; for Hela CellCycMod PI MI IC50/EC50: assay number 17; for Hela CellCycMod PI Cell Number IC50/EC50: assay number 18. The class given is cell-based.
Assay [15] has as its system ECFC/ADSC co-culture cell nuclei number.
For assay [16], the system named is Colo320. In words: cells. The assay is classed as cell-based. To be noted: basal; for Basal_Viability ATP Colo 320 IC50/EC50: assay number 27.
Assay [17] deals with T5, hGSK3b (Homo sapiens, UniProt P49841).
T5 construct: purchased Cerep (LANCE kinase assay platform, contract assay)
The assay can be described thus: Cerep LANCE kinase assay hGSK3b (S1 assay 34). The class given is biochemical. As to conditions: for hGSK3b LANCE IC50/EC50: assay number 34.

For assay [18], the system named is endothelial tube formation in co-cultures of ECFCs and ADSCs treated with VEGF. The assay can be described thus: cells. The class given is cell-based, human.

T5 sequence (P49841 whole entry): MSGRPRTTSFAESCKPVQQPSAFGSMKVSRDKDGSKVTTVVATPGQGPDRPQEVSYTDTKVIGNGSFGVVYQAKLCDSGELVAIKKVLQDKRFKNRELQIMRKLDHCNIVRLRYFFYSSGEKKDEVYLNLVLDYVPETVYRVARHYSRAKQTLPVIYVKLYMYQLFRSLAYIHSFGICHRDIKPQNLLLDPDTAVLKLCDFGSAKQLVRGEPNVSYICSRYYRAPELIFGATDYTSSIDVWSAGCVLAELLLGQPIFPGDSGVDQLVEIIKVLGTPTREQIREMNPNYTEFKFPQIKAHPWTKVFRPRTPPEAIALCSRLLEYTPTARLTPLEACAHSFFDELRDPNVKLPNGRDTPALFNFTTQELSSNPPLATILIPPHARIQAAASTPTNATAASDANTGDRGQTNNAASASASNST
T1 sequence (O60674 whole entry): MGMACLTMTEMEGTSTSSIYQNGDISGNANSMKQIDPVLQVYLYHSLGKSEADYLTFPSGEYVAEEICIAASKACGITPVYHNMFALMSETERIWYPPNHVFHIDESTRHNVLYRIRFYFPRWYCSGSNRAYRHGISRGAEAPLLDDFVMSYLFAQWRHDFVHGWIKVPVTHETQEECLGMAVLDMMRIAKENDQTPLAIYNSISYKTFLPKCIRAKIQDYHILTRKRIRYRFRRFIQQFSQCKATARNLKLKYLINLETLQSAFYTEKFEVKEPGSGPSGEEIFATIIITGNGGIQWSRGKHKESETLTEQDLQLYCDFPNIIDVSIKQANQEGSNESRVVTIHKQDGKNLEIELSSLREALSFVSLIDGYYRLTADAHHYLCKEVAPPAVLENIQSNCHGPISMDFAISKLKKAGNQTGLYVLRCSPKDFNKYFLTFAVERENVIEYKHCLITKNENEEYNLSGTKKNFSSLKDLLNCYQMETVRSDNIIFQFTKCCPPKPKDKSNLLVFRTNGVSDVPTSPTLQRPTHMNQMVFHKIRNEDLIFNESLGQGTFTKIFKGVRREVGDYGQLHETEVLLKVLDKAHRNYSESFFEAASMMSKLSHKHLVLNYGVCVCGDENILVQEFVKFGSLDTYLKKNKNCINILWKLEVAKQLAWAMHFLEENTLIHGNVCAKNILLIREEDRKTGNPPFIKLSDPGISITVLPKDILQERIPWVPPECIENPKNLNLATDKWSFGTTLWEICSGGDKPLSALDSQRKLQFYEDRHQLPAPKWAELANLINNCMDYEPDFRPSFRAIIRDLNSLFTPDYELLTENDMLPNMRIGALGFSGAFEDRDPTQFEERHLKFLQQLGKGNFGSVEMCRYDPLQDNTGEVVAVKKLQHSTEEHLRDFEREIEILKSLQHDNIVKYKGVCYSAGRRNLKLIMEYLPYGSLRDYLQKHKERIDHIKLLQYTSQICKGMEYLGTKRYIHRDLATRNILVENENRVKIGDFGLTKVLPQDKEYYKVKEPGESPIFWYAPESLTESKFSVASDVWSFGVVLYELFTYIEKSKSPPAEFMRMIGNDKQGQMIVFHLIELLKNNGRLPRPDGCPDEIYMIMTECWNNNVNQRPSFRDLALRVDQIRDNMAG
T4 sequence (P36888 27-993): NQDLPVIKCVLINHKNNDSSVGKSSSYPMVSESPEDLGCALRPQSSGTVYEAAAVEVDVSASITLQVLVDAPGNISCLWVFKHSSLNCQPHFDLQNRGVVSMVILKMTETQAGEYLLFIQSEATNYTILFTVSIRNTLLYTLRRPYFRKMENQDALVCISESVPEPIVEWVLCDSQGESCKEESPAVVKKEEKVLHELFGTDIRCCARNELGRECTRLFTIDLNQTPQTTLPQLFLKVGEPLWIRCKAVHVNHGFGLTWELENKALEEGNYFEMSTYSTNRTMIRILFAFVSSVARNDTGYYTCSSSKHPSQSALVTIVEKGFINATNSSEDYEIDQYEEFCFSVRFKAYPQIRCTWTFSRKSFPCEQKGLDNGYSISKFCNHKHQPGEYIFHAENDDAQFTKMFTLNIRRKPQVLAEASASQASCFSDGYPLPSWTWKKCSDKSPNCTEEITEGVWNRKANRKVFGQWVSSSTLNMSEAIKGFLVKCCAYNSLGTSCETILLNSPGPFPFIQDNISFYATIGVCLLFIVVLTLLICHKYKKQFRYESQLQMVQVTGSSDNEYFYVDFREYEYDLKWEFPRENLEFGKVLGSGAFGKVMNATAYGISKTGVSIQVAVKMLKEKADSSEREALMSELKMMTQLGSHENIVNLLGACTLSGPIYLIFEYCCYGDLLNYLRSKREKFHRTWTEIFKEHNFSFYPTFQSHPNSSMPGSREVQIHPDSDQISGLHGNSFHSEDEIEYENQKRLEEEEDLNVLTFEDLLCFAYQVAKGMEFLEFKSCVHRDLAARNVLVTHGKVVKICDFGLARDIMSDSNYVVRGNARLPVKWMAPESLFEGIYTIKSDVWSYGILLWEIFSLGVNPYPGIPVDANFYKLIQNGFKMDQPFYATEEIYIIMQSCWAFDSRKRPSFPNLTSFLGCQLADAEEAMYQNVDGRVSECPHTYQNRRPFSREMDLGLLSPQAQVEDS
T2 sequence (P23443 whole entry): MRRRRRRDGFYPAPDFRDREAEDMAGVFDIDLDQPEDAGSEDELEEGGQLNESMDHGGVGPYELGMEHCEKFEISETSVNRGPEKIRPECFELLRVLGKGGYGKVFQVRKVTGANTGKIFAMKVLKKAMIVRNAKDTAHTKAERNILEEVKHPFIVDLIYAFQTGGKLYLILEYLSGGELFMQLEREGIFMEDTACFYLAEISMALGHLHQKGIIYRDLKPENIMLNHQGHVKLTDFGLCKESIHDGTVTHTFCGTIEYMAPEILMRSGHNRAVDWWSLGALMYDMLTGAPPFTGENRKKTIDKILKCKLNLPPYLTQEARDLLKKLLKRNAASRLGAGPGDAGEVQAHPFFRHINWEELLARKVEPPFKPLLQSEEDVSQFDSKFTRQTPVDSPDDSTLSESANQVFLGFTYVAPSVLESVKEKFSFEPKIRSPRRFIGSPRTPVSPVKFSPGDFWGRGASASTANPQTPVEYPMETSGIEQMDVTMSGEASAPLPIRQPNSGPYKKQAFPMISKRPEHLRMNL
T3 sequence (P35968 20-1356): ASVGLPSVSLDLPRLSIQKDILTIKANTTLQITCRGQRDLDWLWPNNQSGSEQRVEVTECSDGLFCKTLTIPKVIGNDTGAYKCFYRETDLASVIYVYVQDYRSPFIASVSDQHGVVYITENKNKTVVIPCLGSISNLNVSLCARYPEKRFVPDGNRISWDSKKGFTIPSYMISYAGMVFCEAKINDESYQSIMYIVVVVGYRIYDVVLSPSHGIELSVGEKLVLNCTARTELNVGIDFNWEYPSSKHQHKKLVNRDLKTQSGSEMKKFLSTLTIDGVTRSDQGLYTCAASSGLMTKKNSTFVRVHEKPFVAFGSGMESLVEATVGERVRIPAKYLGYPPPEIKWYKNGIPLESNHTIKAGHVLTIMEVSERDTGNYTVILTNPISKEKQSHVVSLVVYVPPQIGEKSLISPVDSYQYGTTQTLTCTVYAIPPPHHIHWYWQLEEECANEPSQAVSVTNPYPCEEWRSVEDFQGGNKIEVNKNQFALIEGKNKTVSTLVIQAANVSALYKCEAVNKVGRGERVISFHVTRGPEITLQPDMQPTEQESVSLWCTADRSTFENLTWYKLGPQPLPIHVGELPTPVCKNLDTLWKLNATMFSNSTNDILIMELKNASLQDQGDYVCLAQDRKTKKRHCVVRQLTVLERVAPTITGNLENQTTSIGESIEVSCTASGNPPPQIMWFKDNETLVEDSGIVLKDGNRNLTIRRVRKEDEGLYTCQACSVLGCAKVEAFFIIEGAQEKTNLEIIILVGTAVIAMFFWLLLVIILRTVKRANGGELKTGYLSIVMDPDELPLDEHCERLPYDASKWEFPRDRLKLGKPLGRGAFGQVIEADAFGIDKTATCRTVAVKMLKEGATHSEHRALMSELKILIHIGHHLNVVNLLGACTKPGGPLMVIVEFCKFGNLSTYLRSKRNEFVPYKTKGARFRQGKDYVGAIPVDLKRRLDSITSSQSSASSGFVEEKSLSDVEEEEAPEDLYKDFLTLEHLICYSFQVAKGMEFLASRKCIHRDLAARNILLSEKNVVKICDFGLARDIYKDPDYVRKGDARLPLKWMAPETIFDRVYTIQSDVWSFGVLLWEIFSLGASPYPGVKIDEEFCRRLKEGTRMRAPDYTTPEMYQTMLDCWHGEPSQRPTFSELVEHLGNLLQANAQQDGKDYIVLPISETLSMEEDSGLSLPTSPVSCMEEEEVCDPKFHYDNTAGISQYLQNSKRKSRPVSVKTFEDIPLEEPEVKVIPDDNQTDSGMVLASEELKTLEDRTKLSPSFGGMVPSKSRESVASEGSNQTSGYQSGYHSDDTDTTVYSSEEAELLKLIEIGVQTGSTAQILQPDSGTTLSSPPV

For `CCCSc1ccc2nc(NC(=O)OC)[nH]c2c1` [NCGC00016876-12], the “IC50/EC50, Basal_Viability ATP HT-29 (assay number 28)” value in assay [1] is given as above 20 µM. For the same molecule, in assay [2], the “IC50/EC50, Basal_Viability ATP SW480 (assay number 24)” value is above 20 µM. Also, in assay [3], the “IC50/EC50, Basal_Viability ATP HCT116 (assay number 25)” value is on record as 0.1118 µM. Also, the “IC50/EC50, hJAK2 LANCE (assay number 33)” value in assay [4] is above 20 µM. In addition, the “IC50/EC50, WntCondMedia_Alk Phos C2C12 (assay number 6)” value in assay [5] was 12.2685 µM. In addition, the “IC50/EC50, hp70S6K1 LANCE (assay number 31)” value in [6] was above 20 µM. In [7], the “IC50/EC50, Basal_Viability ATP DLD-1 (assay number 23)” value is recorded as 0.1085 µM. Besides, the “IC50/EC50, WntCondMedia_bCatenin C2C12 (assay number 5)” value in [8] is on record as 1.2764 µM. Further, in assay [9], the “IC50/EC50, Basal_Viability ATP SNU-C1 (assay number 30)” value is above 20 µM. Further, the “IC50/EC50, hKDR LANCE (assay number 32)” value in assay [10] is on record as above 20 µM. In addition, in assay [11], the “IC50/EC50, Basal_Viability ATP RKO (assay number 29)” value came to 0.1653 µM. For the same molecule, the “IC50/EC50, hFLT3 LANCE (assay number 35)” value in assay [12] is above 20 µM. In addition, the “IC50/EC50, GSK3b inh pretreated_Viability ATP HCT116 (assay number 26)” value in assay [13] (GSK3b inh pretreated) turned out to be 0.1579 µM. For the same molecule, the “IC50/EC50, Hela CellCycMod PI 2N (assay number 14)” value in assay [14] (2N) was 0.0656 µM. The “IC50/EC50, Hela CellCycMod PI 4N (assay number 16)” value in [14] (4N) is recorded as 0.0612 µM. Moreover, the “IC50/EC50, Hela CellCycMod PI Cell Number (assay number 18)” value in assay [14] (Cell Number) is listed as 0.0377 µM. Moreover, in [14] (MI), the “IC50/EC50, Hela CellCycMod PI MI (assay number 17)” value was 0.0615 µM. Besides, the “IC50/EC50, Hela CellCycMod PI S Phase (assay number 15)” value in assay [14] (S Phase) is given as above 10 µM. In addition, in assay [15], the “IC50/EC50, VEGF_ADSC\ECFC Angio Hoechst NucArea (assay number 3)” value is reported as above 10 µM. For the same molecule, the “IC50/EC50, Basal_Viability ATP Colo 320 (assay number 27)” value in assay [16] was 0.502 µM. Besides, the “IC50/EC50, hGSK3b LANCE (assay number 34)” value in assay [17] is reported as above 20 µM. Further, the “IC50/EC50, VEGF_ADSC\ECFC Angio CD31 TubeArea (assay number 2)” value in assay [18] turned out to be 0.3554 µM.

For `Cc1cc(C2CCCCC2)n(O)c(=O)c1.NCCO` [NCGC00017112-10], the “Basal_Viability ATP HT-29 IC50/EC50” value in assay [1] turned out to be 7.035 µM. Further, in assay [2], the “Basal_Viability ATP SW480 IC50/EC50” value is 0.469 µM. Further, the “Basal_Viability ATP HCT116 IC50/EC50” value in assay [3] is on record as 0.6557 µM. Moreover, the “hJAK2 LANCE IC50/EC50” value in assay [4] was above 20 µM. Also, the “WntCondMedia_Alk Phos C2C12 IC50/EC50” value in assay [5] came to 1.0476 µM. For the same molecule, in assay [6], the “hp70S6K1 LANCE IC50/EC50” value is on record as above 20 µM. Besides, the “Basal_Viability ATP DLD-1 IC50/EC50” value in [7] stood at 0.316 µM. For the same molecule, the “WntCondMedia_bCatenin C2C12 IC50/EC50” value in assay [8] is reported as above 20 µM. Moreover, in assay [9], the “Basal_Viability ATP SNU-C1 IC50/EC50” value is above 20 µM. For the same molecule, the “hKDR LANCE IC50/EC50” value in assay [10] is on record as above 20 µM. Further, the “Basal_Viability ATP RKO IC50/EC50” value in assay [11] is listed as 0.2329 µM. Further, in [12], the “hFLT3 LANCE IC50/EC50” value is on record as above 20 µM. Further, the “GSK3b inh pretreated_Viability ATP HCT116 IC50/EC50” value in assay [13] is given as 0.3898 µM. The “Hela CellCycMod PI 2N IC50/EC50” value in assay [14] (2N) is reported as above 10 µM. Further, in assay [14] (4N), the “Hela CellCycMod PI 4N IC50/EC50” value is above 10 µM. Also, in assay [14] (MI), the “Hela CellCycMod PI MI IC50/EC50” value was above 10 µM. Besides, the “Hela CellCycMod PI Cell Number IC50/EC50” value in assay [14] came to 0.5693 µM. Besides, in assay [15], the “VEGF_ADSC\ECFC Angio Hoechst NucArea IC50/EC50” value is on record as above 10 µM. Further, the “Basal_Viability ATP Colo 320 IC50/EC50” value in assay [16] was 0.2084 µM. Further, in assay [17], the “hGSK3b LANCE IC50/EC50” value is recorded as above 20 µM. Besides, the “VEGF_ADSC\ECFC Angio CD31 TubeArea IC50/EC50” value in assay [18] is above 10 µM.

In the case of `O=C(CCl)c1ccc(Cl)cc1Cl` [NCGC00091258-05], the “Basal_Viability ATP HT-29 IC50/EC50” value in assay [1] was 8.5217 µM. Further, the “Basal_Viability ATP SW480 IC50/EC50” value in assay [2] was 1.249 µM. The “Basal_Viability ATP HCT116 IC50/EC50” value in assay [3] turned out to be 6.3 µM. In addition, in assay [4], the “hJAK2 LANCE IC50/EC50” value was above 20 µM. The “WntCondMedia_Alk Phos C2C12 IC50/EC50” value in [5] is listed as above 20 µM. The “hp70S6K1 LANCE IC50/EC50” value in assay [6] is reported as above 20 µM. Moreover, the “Basal_Viability ATP DLD-1 IC50/EC50” value in assay [7] worked out at 2.0651 µM. Besides, the “WntCondMedia_bCatenin C2C12 IC50/EC50” value in [8] was 0.3728 µM. Also, the “Basal_Viability ATP SNU-C1 IC50/EC50” value in assay [9] amounted to 2.9752 µM. The “hKDR LANCE IC50/EC50” value in [10] is recorded as above 20 µM. Besides, in [11], the “Basal_Viability ATP RKO IC50/EC50” value amounted to 4.299 µM. Moreover, in assay [12], the “hFLT3 LANCE IC50/EC50” value is above 20 µM. Besides, in [13], the “GSK3b inh pretreated_Viability ATP HCT116 IC50/EC50” value turned out to be 1.098 µM. Moreover, the “Hela CellCycMod PI 2N IC50/EC50” value in [14] (2N) turned out to be 0.514 µM. Further, in assay [14] (assay number 15, S phase), the “Hela CellCycMod PI S Phase IC50/EC50” value is on record as above 10 µM. Further, the “Hela CellCycMod PI 4N IC50/EC50” value in assay [14] (4N) is recorded as above 10 µM. Besides, the “Hela CellCycMod PI MI IC50/EC50” value in assay [14] (MI) amounted to 0.541 µM. For the same molecule, the “Hela CellCycMod PI Cell Number IC50/EC50” value in assay [14] was 0.35 µM. Further, the “VEGF_ADSC\ECFC Angio Hoechst NucArea IC50/EC50” value in assay [15] is reported as 6.1739 µM. The “Basal_Viability ATP Colo 320 IC50/EC50” value in assay [16] came out at 0.5301 µM. Besides, in assay [17], the “hGSK3b LANCE IC50/EC50” value is on record as above 20 µM. The “VEGF_ADSC\ECFC Angio CD31 TubeArea IC50/EC50” value in assay [18] was 2.4875 µM.
